This is an account of results in patent publication US20250129078A1, “ERBB2 INHIBITORS” (Cogent Biosciences, Inc., priority 2023, published 2025).

The target of one assay is ErbB2 V777L (Homo sapiens (Human), UniProt P04626, V777L). Kind of assay: ErbB enzyme assay (CisBio HTRF-KinEASE-TK), ErbB2 V777L. Type of assay: biochemical. In outline: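 HTRF KinEASE-TK tyrosine-kinase read-out of substrate phosphorylation after a final 1 h at ambient temperature, from the 655/620 nm emission ratio.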
The target of a further assay is EGFR WT (Homo sapiens (Human), UniProt P00533). Nature of the assay: ErbB enzyme assay (CisBio HTRF-KinEASE-TK), EGFR WT. Type of assay: biochemical. The note with it: ATP at Km (25 μM), 1 h incubation. In outline:
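IC50 comes from a 4-parameter fit where the curve crosses 50 percent of control, using the 655/620 nm time-resolved fluorescence ratio with DMSO-only and pre-quenched references. Kinase reactions ran 1 h at ambient temperature before Sa-XL665/cryptate-antibody detection (1 h).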

In general, IC50 refers to the concentration that inhibits the measured activity by half. Low readings indicate higher potency, high ones lower potency.

Counter-ions that a name gives are not always drawn.

EGFR WT, sequence (P00533 25-1210): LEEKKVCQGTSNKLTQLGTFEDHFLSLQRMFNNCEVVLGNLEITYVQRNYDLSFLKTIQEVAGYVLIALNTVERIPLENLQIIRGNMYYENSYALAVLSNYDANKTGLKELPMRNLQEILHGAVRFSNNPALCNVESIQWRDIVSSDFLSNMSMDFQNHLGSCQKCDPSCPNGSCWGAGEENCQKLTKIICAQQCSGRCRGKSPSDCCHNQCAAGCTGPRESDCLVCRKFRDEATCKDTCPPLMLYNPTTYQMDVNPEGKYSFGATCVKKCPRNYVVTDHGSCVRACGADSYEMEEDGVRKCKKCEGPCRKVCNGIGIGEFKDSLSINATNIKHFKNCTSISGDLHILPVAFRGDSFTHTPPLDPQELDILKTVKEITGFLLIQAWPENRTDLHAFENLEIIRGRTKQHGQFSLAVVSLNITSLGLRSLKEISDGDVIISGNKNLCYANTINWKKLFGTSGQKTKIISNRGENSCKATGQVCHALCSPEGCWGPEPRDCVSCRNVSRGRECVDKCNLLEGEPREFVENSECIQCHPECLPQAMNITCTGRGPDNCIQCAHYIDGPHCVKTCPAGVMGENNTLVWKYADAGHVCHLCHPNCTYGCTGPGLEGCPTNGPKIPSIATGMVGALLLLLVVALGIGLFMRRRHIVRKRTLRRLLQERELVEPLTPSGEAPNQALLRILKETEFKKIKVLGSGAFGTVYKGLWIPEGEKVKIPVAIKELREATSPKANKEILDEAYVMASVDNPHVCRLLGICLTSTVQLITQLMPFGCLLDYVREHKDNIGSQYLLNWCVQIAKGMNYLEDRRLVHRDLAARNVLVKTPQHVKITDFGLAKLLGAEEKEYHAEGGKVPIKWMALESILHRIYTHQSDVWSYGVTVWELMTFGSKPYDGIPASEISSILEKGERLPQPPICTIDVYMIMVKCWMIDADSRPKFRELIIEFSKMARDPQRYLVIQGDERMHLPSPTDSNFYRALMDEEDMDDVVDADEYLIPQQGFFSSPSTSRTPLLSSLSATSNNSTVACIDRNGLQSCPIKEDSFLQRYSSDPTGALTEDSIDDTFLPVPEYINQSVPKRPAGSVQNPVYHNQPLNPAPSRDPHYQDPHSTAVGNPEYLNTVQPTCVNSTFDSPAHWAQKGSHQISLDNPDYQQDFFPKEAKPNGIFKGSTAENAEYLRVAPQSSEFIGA
ErbB2 V777L, sequence (P04626 23-1255 V777L): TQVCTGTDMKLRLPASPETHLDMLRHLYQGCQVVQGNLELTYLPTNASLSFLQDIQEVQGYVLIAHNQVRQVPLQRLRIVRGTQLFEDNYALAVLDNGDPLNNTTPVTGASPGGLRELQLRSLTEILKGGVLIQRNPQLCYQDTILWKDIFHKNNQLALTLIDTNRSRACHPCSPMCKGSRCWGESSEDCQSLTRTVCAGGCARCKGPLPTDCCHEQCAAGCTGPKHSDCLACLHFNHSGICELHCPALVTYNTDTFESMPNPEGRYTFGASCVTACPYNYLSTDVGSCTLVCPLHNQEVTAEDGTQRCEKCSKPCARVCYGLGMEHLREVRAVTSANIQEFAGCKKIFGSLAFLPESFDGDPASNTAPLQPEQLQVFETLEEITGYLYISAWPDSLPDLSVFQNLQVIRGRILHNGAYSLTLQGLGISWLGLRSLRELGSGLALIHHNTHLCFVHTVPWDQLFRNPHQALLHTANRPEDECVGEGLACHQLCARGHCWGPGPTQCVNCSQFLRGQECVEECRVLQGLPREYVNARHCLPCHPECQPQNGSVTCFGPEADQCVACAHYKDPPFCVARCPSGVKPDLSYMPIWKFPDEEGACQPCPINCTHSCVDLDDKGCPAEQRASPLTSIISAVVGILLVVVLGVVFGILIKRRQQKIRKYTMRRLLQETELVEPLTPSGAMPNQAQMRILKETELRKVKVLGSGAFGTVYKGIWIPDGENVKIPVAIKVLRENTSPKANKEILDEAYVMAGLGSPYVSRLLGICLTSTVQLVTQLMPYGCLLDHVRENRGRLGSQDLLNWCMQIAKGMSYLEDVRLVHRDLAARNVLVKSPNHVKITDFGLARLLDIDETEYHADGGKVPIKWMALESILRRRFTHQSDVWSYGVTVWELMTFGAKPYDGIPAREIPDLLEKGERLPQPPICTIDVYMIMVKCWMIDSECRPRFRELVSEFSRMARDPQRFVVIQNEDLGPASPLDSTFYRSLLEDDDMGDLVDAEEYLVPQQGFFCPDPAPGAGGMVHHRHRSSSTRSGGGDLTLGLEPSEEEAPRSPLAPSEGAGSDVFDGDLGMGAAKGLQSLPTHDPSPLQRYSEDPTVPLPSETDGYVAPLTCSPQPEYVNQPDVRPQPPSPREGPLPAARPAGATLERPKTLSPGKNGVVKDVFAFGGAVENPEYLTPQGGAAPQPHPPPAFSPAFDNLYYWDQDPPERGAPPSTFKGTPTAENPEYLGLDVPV

Regarding `C=CC(=O)N1CCN(c2ccc3ncnc(Nc4cc(C)c(Oc5ccc6c(c5)nnn6C)cc4OC(F)(F)F)c3n2)CC1(C)C` [Compound 306, 1-(2,2-dimethyl-4-(4-((5-methyl-4-((1-methyl-1H-benzo[d][1,2,3]triazol-5-yl)oxy)-2-(trifluoromethoxy)phenyl)amino)py-rido[3,2-d]pyrimidin-6-yl)piperazin-1-yl)prop-2-en-1-one], the IC50 on ErbB2 V777L and against EGFR WT was 0.1 to 0.5 µM in each case.

As for `C=CC(=O)N1C[C@@H](N(C)c2ccc3ncnc(Nc4ccc(Oc5ccc6c(c5)nnn6C)c(C)c4)c3n2)C[C@H]1C` [Compound 351, 1-((2R,4S)-2-methyl-4-(methyl(4-((3-methyl-4-((1-methyl-H-benzo[d][1,2,3]triazol-5-yl)oxy)phenyl)amino)pyrido[3,2-d]pyrimidin-6-yl)amino)pyrrolidin-1-yl)prop-2-en-1-one], the IC50 against ErbB2 V777L lay in the range of 0.1 to 0.5 µM; on EGFR WT, 0.5 to 1 µM.

Consider `C=CC(=O)N1CCN(c2ccc3ncnc(Nc4ccc(Oc5ccc6c(c5)nnn6C)c(C)c4F)c3n2)CC1(C)C` [Compound 275, 1-(4-(4-((2-fluoro-3-methyl-4-((1-methyl-1H-benzo[d][1,2,3]triazol-5-yl)oxy)phenyl)amino)pyrido[3,2-d]pyrimidin-6-yl)-2,2-dimethylpiperazin-1-yl)prop-2-en-1-one], for which the IC50 against ErbB2 V777L and on EGFR WT was 0.1 to 0.5 µM throughout.

As to `C=C(F)C(=O)N1CC(F)(F)C12CN(c1ncc3ncnc(Nc4ccc(Oc5ccc6c(c5)nnn6C)c(C)c4)c3n1)C2` [Compound 209, 1-(3,3-difluoro-6-(8-((3-methyl-4-((1-methyl-1H-benzo[d][1,2,3]triazol-5-yl)oxy)phenyl)amino)pyrimido [5,4-d]pyrimidin-2-yl)-1,6-diazaspiro[3.3]heptan-1-yl)-2-fluoroprop-2-en-1-one], the IC50 on ErbB2 V777L and at EGFR WT was 0.05 to 0.1 µM in each case.

As for `C=CC(=O)N(C)[C@@H]1CCCN(c2ncc3ncnc(Nc4ccc(Oc5ccc6c(c5)nnn6C)c(C)c4)c3n2)C1` [Compound 129, (R)-N-methyl-N-(1-(8-((3-methyl-4-((1-methyl-1H-benzo[d][1,2,3]triazol-5-yl)oxy)phenyl)amino)pyrimido[5,4-d]pyrimidin-2-y1)piperidin-3-yl)acrylamide], the half-inhibitory concentration (IC50) on ErbB2 V777L fell in the range of 0.05 to 0.1 µM; against EGFR WT, 0.1 to 0.5 µM.

In the case of `C=CC(=O)N1CCN(c2ncc3ncnc(Nc4ccc(Oc5ccc6c(c5)nnn6C)c(C)c4)c3n2)C[C@@H]1C` [Compound 2, (S)-1-(2-methyl-4-(8-((3-methyl-4-((1-methyl-1H-benzo[d][1,2,3]triazol-5-yl)oxy)phenyl)amino)pyrimido[5,4-d]pyrimidin-2-y1)piperazin-1-yl)prop-2-en-1-one], the half-inhibitory concentration (IC50) against ErbB2 V777L is 0.05 to 0.1 µM; against EGFR WT it was 0.1 to 0.5 µM.

Take `C=CC(=O)NC1(C)CCN(c2ccc3ncnc(Nc4ccc(Oc5ccc6c(c5)nnn6C)c(C)c4F)c3n2)CC1` [Compound 273, N-(1-(4-((2-fluoro-3-methyl-4-((1-methyl-1H-benzo[d][1,2,3]triazol-5-yl)oxy)phenyl)amino)pyrido[3,2-d]pyrimidin-6-yl)-4-methylpiperidin-4-yl)acrylamide]: the IC50 on ErbB2 V777L was 0.1 to 0.5 µM; against EGFR WT, 0.5 to 1 µM.

In the case of `C=C1CCN([C@H]2CCN(c3ncc4ncnc(Nc5ccc(Oc6ccn7ncnc7c6)c(C)c5)c4n3)C2)C1=O` [Compound 239, (S)-1′-(8-((4-([1,2,4]triazolo[1,5-a]pyridin-7-yloxy)-3-methylphenyl)amino)pyrimido[5,4-d]pyrimidin-2-yl)-3-methylene-[1,3′-bipyrrolidin]-2-one], the IC50 on ErbB2 V777L lay in the range of 0.05 to 0.1 µM; against EGFR WT, 0.5 to 1 µM.

Turning to `C=CC(=O)N1CCN(c2ccc3ncnc(Nc4ccc(Oc5ccc6c(c5)nnn6C)c(C)c4F)c3n2)C[C@H]1C` [Compound 246, (R)-1-(4-(4-((2-fluoro-3-methyl-4-((1-methyl-1H-benzo[d][1,2,3]triazol-5-yl)oxy)phenyl)amino)pyrido[3,2-d]pyrimidin-6-yl)-2-methylpiperazin-1-yl)prop-2-en-1-one], the values for the IC50 at ErbB2 V777L and at EGFR WT were 0.05 to 0.1 µM and 0.1 to 0.5 µM, respectively.

With `C=CC(=O)N1CCC12CN(c1ncc3ncnc(Nc4ccc(Oc5ccc6c(c5)nnn6C)c(C)c4F)c3n1)C2` [Compound 67, 1-(6-(8-((2-fluoro-3-methyl-4-((1-methyl-1H-benzo[d][1,2,3]triazol-5-yl)oxy)phenyl)amino)pyrimido[5,4-d]pyrimidin-2-yl)-1,6-diazaspiro[3.3]heptan-1-yl)prop-2-en-1-one], the IC50 at ErbB2 V777L and at EGFR WT was 0.1 to 0.5 µM in each case.

In the case of `C=CC(=O)N1C2CCCC1CC(c1ccc3ncnc(Nc4ccc(Oc5ccc6c(c5)nnn6C)c(C)c4)c3n1)C2` (centres unmarked) [Compound 395, 1-(3-(4-((3-methyl-4-((1-methyl-1H-benzo[d][1,2,3]triazol-5-yl)oxy)phenyl)amino)pyrido[3,2-d]pyrimidin-6-yl)-9-azabicyclo[3.3.1]nonan-9-yl)prop-2-en-1-one trifluoroacetate], the IC50 against ErbB2 V777L and against EGFR WT was 0.1 to 0.5 µM throughout.

Consider `C=CC(=O)N1CCN(c2ccc3ncnc(Nc4ccc(Oc5ccc6c(c5)nnn6C)c(C)c4)c3n2)CC[C@@H]1C` [Compound 354, (S)-1-(7-methyl-4-(4-((3-methyl-4-((1-methyl-1H-benzo[d][1,2,3]triazol-5-yl)oxy)phenyl)amino)pyrido[3,2-d]pyrimidin-6-yl)-1,4-diazepan-1-yl)prop-2-en-1-one], for which the IC50 lay in the range of 0.1 to 0.5 µM on ErbB2 V777L and 0.5 to 1 µM on EGFR WT.

Consider `C=CC(=O)N[C@H]1CCCCN(c2ccc3ncnc(Nc4ccc(Oc5ccc6c(c5)nnn6C)c(C)c4F)c3n2)C1` [Compound 291, (S)-N-(1-(4-((2-fluoro-3-methyl-4-((1-methyl-1H-benzo[d][1,2,3]triazol-5-yl)oxy)phenyl)amino)pyrido[3,2-d]pyrimidin-6-yl)azepan-3-yl)acrylamide], for which the IC50 was 0.05 to 0.1 µM at ErbB2 V777L and 0.1 to 0.5 µM against EGFR WT.

Consider `C=CC(=O)N1CC[C@@H]2CN(c3ncc4ncnc(Nc5ccc(Oc6ccc7c(c6)nnn7C)c(C)c5)c4n3)C[C@@H]21` [Compound 150, 1-((3aR,6aR)-5-(8-((3-methyl-4-((1-methyl-1H-benzo[d][1,2,3]triazol-5-yl)oxy)phenyl)amino)pyrimido[5,4-d]pyrimidin-2-yl)hexahydropyrrolo[3,4-b]pyrrol-1(2H)-yl)prop-2-en-1-one], for which the IC50 against ErbB2 V777L lay within 0.1 to 0.5 µM; at EGFR WT, 0.5 to 1 µM.

Turning to `C=C(COC)C(=O)N1CCN(c2ccc3ncnc(Nc4ccc(Oc5ccc6c(c5)nnn6C)c(C)c4)c3n2)CC1` [Compound 366, 2-(methoxymethyl)-1-(4-(4-((3-methyl-4-((1-methyl-1H-benzo[d][1,2,3]triazol-5-yl)oxy)phenyl)amino)pyrido[3,2-d]pyrimidin-6-yl)piperazin-1-yl)prop-2-en-1-one], the IC50 is 0.5 to 1 µM on ErbB2 V777L and ≥ 1 µM on EGFR WT.

Turning to `C=CC(=O)N1C2COCC1CC(c1ccc3ncnc(Nc4ccc(Oc5ccc6c(c5)nnn6C)c(C)c4)c3n1)C2` (centres unmarked) [Compound 396, 1-(7-(4-((3-methyl-4-((1-methyl-1H-benzo[d][1,2,3]triazol-5-yl)oxy)phenyl)amino)pyrido[3,2-d]pyrimidin-6-y1)-3-oxa-9-azabicyclo[3.3.1]nonan-9-yl)prop-2-en-1-one trifluoroacetate], the IC50 on ErbB2 V777L was 0.05 to 0.1 µM; at EGFR WT, 0.1 to 0.5 µM.

As for `C=CC(=O)N1CCN(c2ncc3ncnc(Nc4cc(C)c(Oc5ccc6c(c5)nnn6C)cc4OC)c3n2)CC1` [Compound 12, 1-(4-(8-((2-methoxy-5-methyl-4-((1-methyl-1H-benzo[d][1,2,3]triazol-5-yl)oxy)phenyl)amino)pyrimido[5,4-d]pyrimidin-2-yl)piperazin-1-yl)prop-2-en-1-one 2,2,2-trifluoroacetate], the IC50 against ErbB2 V777L and on EGFR WT was 0.1 to 0.5 µM throughout.

Regarding `C=CC(=O)N1CCN(c2ncc3ncnc(Nc4ccc(Oc5ccc6c(c5)nnn6C(F)F)c(C)c4)c3n2)CC1` [Compound 63, 1-(4-(8-((4-((1-(difluoromethyl)-1H-benzo[d][1,2,3]triazol-5-yl)oxy)-3-methylphenyl)amino)pyrimido[5,4-d]pyrimidin-2-yl)piperazin-1-yl)prop-2-en-1-one], the values for the IC50 against ErbB2 V777L and at EGFR WT were 0.05 to 0.1 µM and < 0.05 µM, respectively.

For `C=CC(=O)N1C2CCCC1CC(c1ccc3ncnc(Nc4ccc(Oc5ccc6c(c5)nnn6C)c(C)c4F)c3n1)C2` (centres unmarked) [Compound 402, 1-(3-(4-((2-fluoro-3-methyl-4-((1-methyl-1H-benzo[d][1,2,3]triazol-5-yl)oxy)phenyl)amino)pyrido[3,2-d]pyrimidin-6-yl)-9-azabicyclo[3.3.1]nonan-9-yl)prop-2-en-1-one trifluoroacetate], the IC50 against ErbB2 V777L and on EGFR WT was 0.1 to 0.5 µM throughout.

`Cc1cc(Nc2ncnc3cnc(N4CCN(C(=O)/C=C/CF)CC4)nc23)ccc1Oc1ccc2c(c1)nnn2C` [Compound 210, (E)-4-fluoro-1-(4-(8-((3-methyl-4-((1-methyl-1H-benzo[d][1,2,3]triazol-5-yl)oxy)phenyl)amino)pyrimido [5,4-d]pyrimidin-2-yl)piperazin-1-yl)but-2-en-1-one]: the IC50 against ErbB2 V777L was in the range of 0.05 to 0.1 µM; at EGFR WT it was 0.1 to 0.5 µM.

For the compound `C=CC(=O)N1CCN(c2ncc3ncnc(Nc4ccc(Oc5ccn6nc(C)nc6c5)c(C)c4)c3n2)C[C@H]1C` [Compound 139], the IC50 on ErbB2 V777L and against EGFR WT was 0.1 to 0.5 µM throughout.

Turning to `C=CC(=O)N1CCN(c2ncc3ncnc(Nc4cc(Cl)c(Oc5ccc6c(c5)nnn6C)cc4F)c3n2)CC1` [Compound 66, 1-(4-(8-((5-chloro-2-fluoro-4-((1-methyl-1H-benzo[d][1,2,3]triazol-5-yl)oxy)phenyl)amino)pyrimido[5,4-d]pyrimidin-2-yl)piperazin-1-yl)prop-2-en-1-one], the IC50 against ErbB2 V777L lay in the range of 0.05 to 0.1 µM; against EGFR WT, 0.1 to 0.5 µM.
